The target of one assay is T1, human GHS-R 1a (Homo sapiens, UniProt Q92847).
T1 construct: expressed in transfected cells; host or cells: LLC PK-1 porcine renal epithelial cells (ECACC No. 86121112), isolated plasma membranes
Description: GHS-R 1a receptor-ligand binding assay (membrane preparations from transfected LLC PK-1 cells). To be noted: displacement of 125I-His9-ghrelin (60 pM); membranes of LLC PK-1 cells transfected with human GHS-R 1a; mean of at least two independent experiments in triplicates. A digest of the protocol: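 Membranes from LLC PK-1 cells expressing human GHS-R 1a incubated 60 min at 25 °C in 50 mM Tris pH 7.3, 5 mM MgCl2, 2.5 mM EDTA, bacitracin with 60 pM 125I-ghrelin and competitor; nonspecific binding with 10^-6 M ghrelin; filtration read-out.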

Assay [1] relates to GH concentration in the plasma of male rat pups. Description: In vivo GH concentration in the plasma of male rat pups. More on the design: species or system rat (Sprague-Dawley). The note with it: rat pup plasma. The protocol: IV) Assaying In Vivo GH Concentration in the Plasma of Male Rat Pups
GH plasma concentrations of male rat pubs were assayed to characterize the modulation effect (antagonistic or agonistic) of the compounds of the invention being GHS receptor analogue ligands.
In principle, assaying in vivo GH concentration in rat plasma was performed according to Torsello et al. (Eur. J. Pharmacol. 1998, 360: 123-129).
Male Sprague-Dawley rat pups (Charles River, Calco, Italy) were separated on postnatal day seven from their mothers and randomly redistributed to the dams, so that each one nurtured ten to twelve pups. On postnatal day ten, the pups were again separated from their mothers.
The compounds to be tested were dissolved in solvent [DMSO (0.4% of total volume), distilled water (4% of total volume), brought to the final volume with physiological saline].
One hour after separation from their mothers, the pups were given isovolumetric amounts of the compounds to be tested (160 μg/kg body weight s.c.) at time −10 min and then administered with hexarelin (80 μg/kg body weight s.c.) or solvent at time 0 min before being killed 15 min later by decapitation. Trunk blood was collected, immediately centrifuged and plasma samples were stored at −20° C. until assayed for the determination of GH concentrations.
Plasma GH concentrations were measured using a rat growth hormone enzyme immunoassay kit (SPIbio, France, cat. no. 589601) according to the manufacturer's instructions. Values are expressed in terms of NIDDK rat-GH-RP2 standard (potency 2 IU/mg) as ng/mL of plasma
The limit of detection calculated as the concentration producing 15% displacement of initial tracer was 0.5 ng/ml; intra-assay and inter-assay coefficient of variation are 4% (n=24) and 14% (n=9).
In the following table 3 results obtained for selected compounds of the invention are presented.

The subject of assay [2] is young-adult male Sprague-Dawley rats. Description: Feeding behavior (food intake) of young-adult male rats. Format: in vivo, rat (Sprague-Dawley). On the procedure: V) Assaying the Feeding Behavior (Food Intake) of Young-Adult Male Rats
The impact of compounds of the invention being GHS receptor analogue ligands on the feeding behaviour, i.e. food intake, of young-adult male rats was assayed.
In principle, assaying the feeding behavior (food intake) of young-adult male rats was performed according to Torsello et al. (Eur. J. Pharmacol. 1998, 360: 123-129).
For the assay, young-adult male Sprague-Dawley rats (Charles River, Calco, Italy), weighing 200-250 g, were used.
Rats had 1 week of acclimation in individual home cages, and animal room conditions (22±2° C., 65% humidity, artificial light from 08.00 to 20.00 h). The following week, they were daily trained to mimic the experimental procedure. Rats maintained free access to dry pellets and tap water throughout the whole experimental period. At the end of training, rats were administered (around 10.00-11.00 a.m.) subcutaneously with the compounds to be tested (160 μg/kg body weight) and/or hexarelin (80 μg/kg body weight) and/or solvent [DMSO (0.4% of total volume), distilled water (4% of total volume), brought to the final volume with physiological saline].
Hexarelin was used to study the effects of the compounds to be tested on stimulated feeding behavior. Immediately after the injections, the animals were returned to their home cages, which contained a known amount of standard rat chow and ad libitum water. Every hour for the following 6 hours, the remaining food was carefully collected and weighed to the nearest 0.1 g. Food intake was normalized for the body weight of the rats and expressed as grams of food eaten per 100 g body weight of rats.
In the following table 4 results obtained for selected compounds of the invention are presented.

Setting [3] is: compound 160 μg/kg s.c. at -10 min + hexarelin 80 μg/kg s.c. at 0 min, killed 15 min later.
The mark [4] stands for this setting: compound 160 μg/kg s.c. + hexarelin 80 μg/kg s.c.
Where [5] appears, read: compound alone, 160 μg/kg body weight s.c.
Where [6] appears, read: compound alone 160 μg/kg body weight s.c. at -10 min, solvent at 0 min, killed 15 min later.

The structures appear in SMILES notation. Several values for one entry are separate records, joined by “and”; a condition that tells them apart may be missing. Equal entries are not always repeated. Non-standard residues stand in square brackets, D forms with d. Residues, ends and D or L forms follow the SMILES beside them. dTrp(2-Me) = Cc1[nH]c2ccccc2c1C[C@@H](N)C(=O)O

T1 sequence (Q92847 whole entry): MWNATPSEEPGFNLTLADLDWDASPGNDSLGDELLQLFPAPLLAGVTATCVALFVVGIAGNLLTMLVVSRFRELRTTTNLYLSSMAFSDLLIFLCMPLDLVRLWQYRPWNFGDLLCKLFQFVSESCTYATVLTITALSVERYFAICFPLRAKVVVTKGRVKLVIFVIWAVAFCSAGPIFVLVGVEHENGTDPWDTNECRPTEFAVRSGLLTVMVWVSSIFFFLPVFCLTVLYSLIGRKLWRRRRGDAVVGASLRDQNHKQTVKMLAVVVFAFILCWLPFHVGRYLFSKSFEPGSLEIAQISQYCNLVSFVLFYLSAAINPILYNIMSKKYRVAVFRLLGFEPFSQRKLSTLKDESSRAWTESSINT

Take `COc1ccc(Cn2c(CCc3c[nH]c4ccccc34)nnc2[C@@H](Cc2c[nH]c3ccccc23)NC(=O)C(C)(C)N)c(OC)c1` [compound 1, (R)—N-(1-(5-(2-(1H-indol-3-yl)ethyl)-4-(2,4-dimethoxybenzyl)-4H-1,2,4-triazol-3-yl)-2-(1H-indol-3-yl)ethyl)-2-amino-2-methylpropanamide]: the IC50 (as a rule, the concentration needed to halve the response being measured) at human GHS-R 1a stood at 160 nM. In assay [1] (setting [3]), the GH concentration amounted to 80.22 ± 18.66 ng/mL. Moreover, in assay [2] (setting [4]), the “Cumulative food intake (after 2 hours)” value is on record as 0.06 ± 0.02 g food/100 g body weight and the “Cumulative food intake (after 6 hours)” value came out at 0.33 ± 0.21 g food/100 g body weight. In assay [2] (setting [5]), the “Cumulative food intake (after 2 hours)” value amounted to 0.02 ± 0.002 g food/100 g body weight and the “Cumulative food intake (after 6 hours)” value was determined as 0.06 ± 0.03 g food/100 g body weight.

With `CC(C)(N)C(=O)N[C@H](Cc1c[nH]c2ccccc12)c1nnc(CCCc2c[nH]c3ccccc23)n1Cc1ccccc1` [compound 9, (R)—N-(1-(5-(3-(1H-indol-3-yl)propyl)-4-benzyl-4H-1,2,4-triazol-3-yl)-2-(1H-indol-3-yl)ethyl)-2-amino-2-methylpropanamide], at human GHS-R 1a, the IC50 is 46 nM. The figures for the GH concentration in assay [1] (setting [3]) and in assay [1] (setting [6]) were 183.562 ± 16.729 ng/mL and 13.016 ± 1.960 ng/mL, respectively. In addition, the figures for the “Cumulative food intake (after 2 hours)” value in assay [2] (setting [4]) and in assay [2] (setting [5]) were 0.0104 ± 0.0032 g food/100 g body weight and 0.01 ± 0 g food/100 g body weight, respectively. In addition, the “Cumulative food intake (after 6 hours)” value is on record as 0.0231 ± 0.0032 g food/100 g body weight in assay [2] (setting [4]) and 0.01 ± 0 g food/100 g body weight in assay [2] (setting [5]).

Compound `COc1ccc(Cn2c(CCc3c[nH]c4ccccc34)nnc2[C@@H](Cc2c[nH]c3ccccc23)NC(=O)C(C)(C)N)cc1` [compound 12, (R)—N-(1-(5-(2-(1H-indol-3-yl)ethyl)-4-(4-methoxybenzyl)-4H-1,2,4-triazol-3-yl)-2-(1H-indol-3-yl)ethyl)-2-amino-2-methylpropanamide] registered a half-maximal inhibitory concentration (IC50) at human GHS-R 1a of 6 nM. Further, the GH concentration in assay [1] (setting [3]) came to 200.0 ± 19.7 ng/mL; in assay [1] (setting [6]), 4.0 ± 0.12 ng/mL. The entries for the “Cumulative food intake (after 2 hours)” value in assay [2] (setting [4]) and in assay [2] (setting [5]) were 0.13 ± 0.07 g food/100 g body weight and 0.034 ± 0.011 g food/100 g body weight, respectively. Besides, the “Cumulative food intake (after 6 hours)” value in assay [2] (setting [4]) came to 0.48 ± 0.22 g food/100 g body weight; in assay [2] (setting [5]), 0.06 ± 0.019 g food/100 g body weight.

As for `COc1ccc(Cn2c(CCc3ccccc3)nnc2[C@@H](Cc2c[nH]c3ccccc23)NC(=O)C(C)(C)N)cc1` [compound 20, (R)—N-(1-(4-(4-methoxybenzyl)-5-phenethyl-4H-1,2,4-triazol-3-yl)-2-(1H-indol-3-yl)ethyl)-2-amino-2-methylpropanamide], at human GHS-R 1a, the IC50 worked out at 14 nM. The GH concentration was 220.51 ± 15.52 ng/mL in assay [1] (setting [3]) and 5.27 ± 0.59 ng/mL in assay [1] (setting [6]). Also, the “Cumulative food intake (after 2 hours)” value was found to be 0.53 ± 0.21 g food/100 g body weight in assay [2] (setting [4]) and 0.01 g food/100 g body weight in assay [2] (setting [5]). Besides, the entries for the “Cumulative food intake (after 6 hours)” value in assay [2] (setting [4]) and in assay [2] (setting [5]) were 0.63 ± 0.19 g food/100 g body weight and 0.2 ± 0.19 g food/100 g body weight, respectively.

The compound `COc1ccc(Cn2c(CCCc3ccccc3)nnc2[C@@H](Cc2c[nH]c3ccccc23)NC(=O)C(C)(C)N)cc1` [compound 22, (R)—N-(1-(4-(4-methoxybenzyl)-5-(3-phenylpropyl)-4H-1,2,4-triazol-3-yl)-2-(1H-indol-3-yl)ethyl)-2-amino-2-methylpropanamide] yielded an IC50 on human GHS-R 1a of 12 nM. Besides, the GH concentration in assay [1] (setting [3]) is 239.91 ± 19.75 ng/mL; in assay [1] (setting [6]), 4.88 ± 0.33 ng/mL. Further, the results for the “Cumulative food intake (after 2 hours)” value in assay [2] (setting [4]) and in assay [2] (setting [5]) were 0.67 ± 0.12 g food/100 g body weight and 0.01 g food/100 g body weight, respectively. Moreover, the “Cumulative food intake (after 6 hours)” value in assay [2] (setting [4]) worked out at 0.86 ± 0.18 g food/100 g body weight; in assay [2] (setting [5]), 0.44 ± 0.2 g food/100 g body weight.

At human GHS-R 1a, `COc1ccc(Cn2c(CCc3c[nH]c4ccccc34)nnc2[C@@H](Cc2c[nH]c3ccccc23)NC(=O)C2CCNCC2)c(OC)c1` [compound 31, (R)—N-(1-(5-(2-(1H-indol-3-yl)ethyl)-4-(2,4-dimethoxybenzyl)-4H-1,2,4-triazol-3-yl)-2-(1H-indol-3-yl)ethyl)piperidine-4-carboxamide] returned an IC50 of 0.5 nM. Further, the GH concentration in assay [1] (setting [3]) was 103.528 ± 14.094 ng/mL; in assay [1] (setting [6]), 119.937 ± 33.054 ng/mL.

With `COc1ccc(Cn2c(CCc3ccccc3)nnc2[C@@H](Cc2c[nH]c3ccccc23)NC(=O)[C@H]2CCCN2)cc1` [compound 47, (R)—N—((R)-1-(4-(4-methoxybenzyl)-5-phenethyl-4H-1,2,4-triazol-3-yl)-2-(1H-indol-3-yl)ethyl)pyrrolidine-2-carboxamide], the IC50 at human GHS-R 1a worked out at 27 nM. Further, the GH concentration in assay [1] (setting [3]) stood at 160.857 ± 13.52 ng/mL; in assay [1] (setting [6]), 5.658 ± 1.192 ng/mL. For the same compound, the “Cumulative food intake (after 2 hours)” value turned out to be 0.35 ± 0.201 g food/100 g body weight in assay [2] (setting [4]) and 0.006 ± 0.002 g food/100 g body weight in assay [2] (setting [5]). The “Cumulative food intake (after 6 hours)” value in assay [2] (setting [4]) came out at 0.47 ± 0.1943 g food/100 g body weight; in assay [2] (setting [5]) it was 0.02 ± 0 g food/100 g body weight.

`COc1ccc(Cn2c(CCc3ccccc3)nnc2[C@@H](Cc2c[nH]c3ccccc23)NC(=O)CN)cc1` [compound 50, (R)—N-(1-(4-(4-methoxybenzyl)-5-phenethyl-4H-1,2,4-triazol-3-yl)-2-(1H-indol-3-yl)ethyl)-2-aminoacetamide]: the values for the GH concentration in assay [1] (setting [3]) and in assay [1] (setting [6]) were 164.459 ± 4.443 ng/mL and 9.852 ± 1.040 ng/mL, respectively. Moreover, the “Cumulative food intake (after 2 hours)” value in assay [2] (setting [4]) was 0.003 ± 0.002 g food/100 g body weight; in assay [2] (setting [5]) it was 0.012 ± 0.008 g food/100 g body weight. For the same compound, the “Cumulative food intake (after 6 hours)” value was found to be 0.017 ± 0.001 g food/100 g body weight in assay [2] (setting [4]) and 0.039 ± 0.011 g food/100 g body weight in assay [2] (setting [5]).

Consider `COc1ccc(Cn2c(CCc3c[nH]c4ccccc34)nnc2[C@H](N)Cc2c[nH]c3ccccc23)c(OC)c1` [compound 74, (R)-1-(5-(2-(1H-indol-3-yl)ethyl)-4-(2,4-dimethoxybenzyl)-4H-1,2,4-triazol-3-yl)-2-(1H-indol-3-yl)ethanamine], for which the GH concentration in assay [1] (setting [3]) came to 194.564 ± 7.658 ng/mL; in assay [1] (setting [6]), 10.571 ± 0.791 ng/mL.

For the compound `Cc1[nH]c2ccccc2c1C[C@@H](NC(=O)[C@@H](N)Cc1cnc[nH]1)C(=O)N[C@@H](C)C(=O)N[C@@H](Cc1c[nH]c2ccccc12)C(=O)N[C@H](Cc1ccccc1)C(=O)N[C@@H](CCCCN)C(N)=O` [hexarelin, Hexarelin, reference compound] (H-H[dTrp(2-Me)]AW[dF]K-NH2), the GH concentration in assay [1] (hexarelin alone 80 μg/kg body weight s.c.) was 170.101 ± 13.226 ng/mL and 253.820 ± 12.268 ng/mL and 162.839 ± 21.095 ng/mL.

For the origin of these results see patent US8710089B2, “Triazole derivatives as ghrelin analogue ligands of growth hormone secretagogue receptors” (Zentaris GmbH, priority 2005, dated 2014).
